The term pKi denotes the Ki on a negative log10 scale, so that one unit is a factor of ten. For orientation: melting point means the temperature of the solid-liquid transition.

pKi: −log10 of the molar value. Counter-ions that a name gives are not always drawn.

Data on seven compounds can be found in patent publication US8394797B2, “Substituted pyrazole sigma receptor antagonists” (Laboratorios Del Dr. Esteve, S.A., priority 2004, dated 2013).

The test system of series [1] is carrageenan-induced thermal hyperalgesia in mice. Kind of series: Carrageenan-induced thermal hyperalgesia model (plantar test, Hargreaves). Format: in vivo. As to conditions: for activity in the carrageenan thermal hyperalgesia model: mice, two hours after carrageenan. Here is the method: Some compounds were also evaluated for antinociceptive activity in the carrageenan-induced thermal hyperalgesia model in mice. In this model, two hours after carrageenan injection into the paw, the plantar test was used to assess thermal hyperalgesia according to the method described by Hargreaves et al. (1988). The compounds of Examples 58 and 62.

In another series the target is T1, σ1-receptor (Cavia porcellus, UniProt Q60492).
T1 construct: guinea pig brains were homogenized; from tissue; host or cells: guinea pig brain membranes
Kind of series: Sigma-1 receptor binding, [3H](+)-pentazocine, brain membranes. Further details: species or system guinea pig. As to conditions: for inhibition at 1 µM: 2.5 h, tested compound at 10^-6 M, [3H](+)-pentazocine 0.5 nM, read-out: binding sigma-1 (*) % of radioactively labeled compound replaced by the tested compound; for pKi: [3H](+)-pentazocine, guinea pig brain membranes, read-out: binding sigma-1 Ki.

The target in the next series is T2, σ2-receptor (Mus musculus, UniProt Q8VD00).
T2 construct: brains from sigma receptor type I (sigma-1) knockout mice were homogenized; from tissue; host or cells: brain membranes of sigma-1 knockout mice
T2 sequence (Q8VD00 1-176): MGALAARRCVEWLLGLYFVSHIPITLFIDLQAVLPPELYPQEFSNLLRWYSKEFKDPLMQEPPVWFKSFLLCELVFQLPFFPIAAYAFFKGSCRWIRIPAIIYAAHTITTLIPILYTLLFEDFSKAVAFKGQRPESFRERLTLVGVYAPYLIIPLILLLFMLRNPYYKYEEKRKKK
Kind of series: Sigma-2 receptor binding, [3H]-DTG, brains from sigma-1 knockout mice. As to conditions: for inhibition at 1 µM: 2 h, tested compound at 10^-6 M, [3H]-DTG 3 nM, read-out: binding sigma-2 (*) % of radioactively labeled compound replaced by the tested compound; for pKi: [3H]-DTG, sigma-1 knockout mouse brain. Here is the method: In brief, brains from sigma receptor type I (sigma-1) knockout mice were homogenized in a volume of 10 mL/g tissue net weight of ice-cold 10 mM Tris-HCl, pH 7.4, containing 320 mM sucrose (Tris-sucrose buffer) with a Potter-Elvehjem homogenizer (10 strokes at 500 r.p.m.) The homogenates were then centrifuged at 1000 g for 10 min at 4° C., and the supernatants were saved. The pellets were resuspended by vortexing in 2 mL/g ice-cold Tris-sucrose buffer and centrifuged again at 1000 g for 10 min. The combined 1000 g supernatants were centrifuged at 31000 g for 15 min at 4° C. The pellets were resuspended by vortexing in 3 mL/g 10 mM Tris-HCl, pH 7.4, and the suspension was kept at 25° C. for 15 min.
The assay tubes contained 10 μL of [^3H]-DTG (final concentration of 3 nM), 400 μL of the tissue suspension (5.3 mL/g in 50 mM Tris-HCl, pH 8.0) to a final assay volume of 0.5 mL. Non-specific binding was defined by addition of a final concentration of 1 μM haloperidol. […] Filters were washed with three times with 5 mL volumes of cold Tris-HCl buffer (10 mM, pH 8.0). Following addition of scintillation cocktail samples were allowed to equilibrate overnight.

The test system of series [2] is capsaicin-induced mechanical allodynia in mice. Kind of series: Effect on capsaicin in development of mechanical allodynia (von Frey filaments). It is filed as in vivo. As to conditions: for antiallodynic effect: mice, capsaicin, von Frey filaments. Here is the method: Effect on Capsaicin in Development of Mechanical Allodynia This model uses the von-Frey Filaments and is a model to test the effects or symptoms of neuropathic pain, allodynia etc. […]. After habituation mice were according to FIG. 1 first treated with the test-compound (or solvent in controls). Then […] (1% DMSO) is injected into their paw resulting in developing pain in the effected paw. The effected paw is then treated with a mechanical stimulus and the latency time before the paw is withdrawn is measured.

Series [3] relates to mechanical allodynia after partial sciatic nerve ligation in mice. Nature of the series: Partial sciatic nerve ligation model of neuropathic pain (von Frey test). It is filed as in vivo. As to conditions: 30 mg/kg s.c.; 11-13 days after surgery. An excerpt:
The von Frey test was used to assess mechanical allodynia 11-13 days after surgery.

The target in the next series is sigma-1 site (Homo sapiens, UniProt Q99720). As to conditions: cited from earlier work.
Another series has as its target sigma-2 site (Homo sapiens, UniProt Q5BJF2). As to conditions: cited from earlier work.

T1 sequence (Q60492 whole entry): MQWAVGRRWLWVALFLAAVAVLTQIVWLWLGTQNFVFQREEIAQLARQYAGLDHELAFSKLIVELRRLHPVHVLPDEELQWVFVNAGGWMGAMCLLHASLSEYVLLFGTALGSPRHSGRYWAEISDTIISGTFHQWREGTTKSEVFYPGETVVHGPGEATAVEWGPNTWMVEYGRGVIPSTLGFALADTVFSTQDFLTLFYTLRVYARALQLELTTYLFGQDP
Sequence of sigma-1 site (Q99720 whole entry): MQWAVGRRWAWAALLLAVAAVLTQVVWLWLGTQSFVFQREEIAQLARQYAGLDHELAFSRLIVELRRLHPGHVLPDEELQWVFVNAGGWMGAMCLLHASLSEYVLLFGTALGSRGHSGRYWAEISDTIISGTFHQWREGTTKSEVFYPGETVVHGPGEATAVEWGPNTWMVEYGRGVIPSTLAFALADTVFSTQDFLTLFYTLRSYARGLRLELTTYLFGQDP
Sequence of sigma-2 site (Q5BJF2 whole entry): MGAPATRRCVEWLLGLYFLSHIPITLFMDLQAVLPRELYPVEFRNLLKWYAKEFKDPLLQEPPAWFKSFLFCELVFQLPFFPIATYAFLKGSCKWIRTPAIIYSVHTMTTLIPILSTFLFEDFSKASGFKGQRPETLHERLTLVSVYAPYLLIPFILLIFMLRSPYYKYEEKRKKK

Regarding `Cn1ncc2c1CCCC2CCN1CCC(c2ccccc2)CC1.O=C(O)C(=O)O` (centres unmarked) [Example 58, 4,5,6,7-tetrahydro-1-methyl-4-(2-(4-phenylpiperidin-1-yl)ethyl)-1H-indazole oxalate], the analgesia in series [1] (2.5 mg/kg) is 60%; in series [1] (10 mg/kg) it was around 90%; in series [2] (2 mg/kg) it was 100%. Moreover, in series [1], the “activity in the carrageenan thermal hyperalgesia model” value was “highly active”. Further, the inhibition at 1 µM on σ1-receptor worked out at 106%; on σ2-receptor it was 100%. Besides, the values for the pKi on σ1-receptor and on σ2-receptor were 8.96 and 8.20, respectively. For the same compound, in series [2], the antiallodynic effect result was “clear antiallodynic effect”.

Take `CN(CCC1CCCc2c1cnn2C)Cc1ccccc1.O=C(O)C(=O)O` (centres unmarked) [Example 62, N-benzyl-2-(4,5,6,7-tetrahydro-1-methyl-1H-indazol-4-yl)-N-methylethanamine oxalate]: the melting point is 140.2 to 141.7 °C. The compound also returned an analgesia in series [1] (2.5 mg/kg) of 40%. This compound also showed an analgesia in series [1] (10 mg/kg) of 75%. This compound also came in with an analgesia in series [1] (40 mg/kg) of 90%. The “activity in the carrageenan thermal hyperalgesia model” value in series [1] is “highly active”. In series [3], the “inhibition of mechanical allodynia” value is on record as “significant inhibition of mechanical allodynia”. Besides, on σ1-receptor, the inhibition at 1 µM was determined as 104% and the negative logarithm of the Ki (pKi) was 7.95. Besides, at σ2-receptor, the inhibition at 1 µM was 93.5% and the pKi is 7.92. Besides, the antiallodynic effect entry in series [2] is given as “clear antiallodynic effect”.

With SKF 10047, the “affinity for the sigma-1 site” value at sigma-1 site is given as “nanomolar affinity”. Moreover, the “affinity for the sigma-2 site” value on sigma-2 site is “micromolar affinity”.

`c1ccc(-n2ncc3c2CCCC3CCN2CCOCC2)cc1` (centres unmarked) [Example 2, 4,5,6,7-tetrahydro-4-(2-(morpholin-4-yl)ethyl)-1-phenyl-1H-indazole oxalate]: the antiallodynic effect result in series [2] is reported as “clear antiallodynic effect”.

Consider `C(/CN1CCOCC1)=C1/CCCc2c1cnn2-c1ccccc1.O=C(O)C(=O)O` [Example 77, (E)-4,5,6,7-tetrahydro-4-(2-(morpholin-4-yl)ethylidene)-1-phenyl-1H-indazole oxalate], for which the antiallodynic effect result in series [2] was “clear antiallodynic effect”.

`c1ccc(-n2ncc3c2CCC3CCn2ccnc2)cc1` (centres unmarked) [Example 45, 4-(2-(1H-imidazol-1-yl)ethyl)-1,4,5,6-tetrahydro-1-phenylcyclopenta[c]pyrazole] gave a melting point of 102.9 to 105.7 °C. Moreover, on σ1-receptor, the inhibition at 1 µM was determined as 76.4% and the pKi is 6.84. For the same compound, the inhibition at 1 µM at σ2-receptor was 22.8%.

As for `c1ccc(C2CCN(CCC3CCc4c3cnn4-c3ccccc3)CC2)cc1` (centres unmarked) [Example 36, 1,4,5,6-tetrahydro-1-phenyl-4-(2-(4-phenylpiperidin-1-yl)ethyl)cyclopenta[c]pyrazole], the melting point was 83 to 86 °C. At σ1-receptor, the inhibition at 1 µM stood at 103% and the pKi was 8.23. The inhibition at 1 µM on σ2-receptor was determined as 87.9%.
